Data from patent publication US20080114041A1, “Benzothiazolesulfonamides” (AstraZeneca AB, priority 2004, published 2008).

Molecular target: T1, hVR1 (Homo sapiens, UniProt Q8NER1)
T1 construct: expressed in transfected cells
Assay: hVR1 FLIPR (Fluorometric Image Plate Reader) screening assay
Format: cell-based
Conditions: transfected CHO cells stably expressing hVR1; inhibition of calcium increase after agonist (50 nM capsaicin or MES buffer pH 5.2); agonist not given
Experimental: 1. hVR1 FLIPR (Fluorometric Image Plate Reader) Screening Assay
Transfected CHO cells, stably expessing hVR1 (15,000 cells/well) are seeded in 50 ul media in a black clear bottom 384 plate (Greiner) and grown in a humidified incubator (37° C., 2% CO2), 24-30 hours prior to experiment.
Subsequently, the media is removed from the cell plate by inversion and 2 μM Fluo-4 is added using a multidrop (Labsystems). Following the 40 minutes dye incubation in the dark at 37° C. and 2% CO2, the extracellular dye present is washed away using an EMBLA (Scatron), leaving the cells in 40 ul of assay buffer (1×HBSS, 10 mM D-Glucose, 1 mM CaCl2, 10 mM HEPES, 10×7.5% NaHCO3 and 2.5 mM Probenecid).
FLIPR Assay—IC50 Determination Protocol
For IC50 determinations the fluorescence is read using FLIPR filter 1 (em […]). A cellular baseline recording is taken for 30 seconds, followed by a 20 μl addition of 10, titrated half-log concentrations of the test compound, yielding cellular concentration ranging from 3 μM to 0.1 nM. […] This consequently leading to a reduction in fluorescence signal and providing a reduced fluorescence reading, compared with no compound, buffer controls. Data is exported by the FLIPR program as a sum of fluorescence calculated under the curve upon the addition of capsaicin. […]

T1 sequence (Q8NER1 whole entry): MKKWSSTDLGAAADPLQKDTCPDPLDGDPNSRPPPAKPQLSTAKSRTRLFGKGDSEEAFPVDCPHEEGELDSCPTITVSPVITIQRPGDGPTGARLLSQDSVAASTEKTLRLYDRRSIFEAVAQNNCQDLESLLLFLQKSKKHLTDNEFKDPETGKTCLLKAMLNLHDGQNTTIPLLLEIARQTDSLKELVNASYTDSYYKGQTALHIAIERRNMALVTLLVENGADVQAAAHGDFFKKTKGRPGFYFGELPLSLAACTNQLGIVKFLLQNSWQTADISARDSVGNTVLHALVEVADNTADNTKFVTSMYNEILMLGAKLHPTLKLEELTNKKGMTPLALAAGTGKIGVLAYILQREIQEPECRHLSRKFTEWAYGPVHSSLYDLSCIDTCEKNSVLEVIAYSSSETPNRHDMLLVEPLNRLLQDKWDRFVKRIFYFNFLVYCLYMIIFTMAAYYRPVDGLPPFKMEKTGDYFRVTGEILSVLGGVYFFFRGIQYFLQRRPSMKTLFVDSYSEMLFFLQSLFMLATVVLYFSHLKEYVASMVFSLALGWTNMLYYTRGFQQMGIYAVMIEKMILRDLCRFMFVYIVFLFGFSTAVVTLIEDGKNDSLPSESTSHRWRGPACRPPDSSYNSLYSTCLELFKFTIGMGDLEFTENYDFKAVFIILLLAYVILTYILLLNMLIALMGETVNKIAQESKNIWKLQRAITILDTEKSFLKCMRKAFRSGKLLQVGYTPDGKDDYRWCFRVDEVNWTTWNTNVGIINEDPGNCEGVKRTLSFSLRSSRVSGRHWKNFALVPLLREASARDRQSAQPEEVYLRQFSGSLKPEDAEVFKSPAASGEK

With O=S(=O)(NCc1cccc(C(F)(F)F)c1)c1ccc2sc(CO)nc2c1 [Compound 5, 2-(hydroxymethyl)-N-[3-(trifluoromethyl)benzyl]-1,3-benzothiazole-5-sulfonamide] the IC50 was 2870 nM.
